# Values quoted from earlier work as cited in patent US10028930B2, “Compositions capable of enhancing thermogenesis and uses thereof” (Specialty Nutrition Group, Inc., priority 2013, dated 2018).
# Experiments:
# [1] = tested on: uncoupling proteins (UCP-1, UCP-2, UCP-3); conditions: rodents, brown and white adipose tissue
# [2] = NAFLD subjects, compared to placebo
substance,measurement,setting,value
Fucoxanthin,"expression of uncoupling proteins (UCP-1, UCP-2, UCP-3)",[1],inducing the expression
same,resting energy expenditure (REE),[2],significantly increased
